Data: patent publication US9913838B2, “Methods of treating cancer using compositions comprising perillyl alcohol derivative” (NEONC TECHNOLOGIES INC., priority 2010, dated 2018)
“Also recorded” adds a separate entry of the source.

Columns and labels:
[1] = CSF versus systemic circulation; cited from earlier work
[2] = in vitro and in vivo; cited from earlier work
[3] = test system: MGMT-positive breast cancer cell lines; assay: Colony formation assay, MGMT-positive breast cancer cell lines (summary); type: cell-based; details: Homo sapiens; range over the three MGMT-positive lines
Procedure: (§1) Depending on the cell line (and plating efficiency), 200-350 cells were seeded into each well of a 6-well plate. […] Thereafter, the drugs were removed, fresh growth medium was added, and the cells were kept in culture undisturbed for 12-16 days, during which time the surviving cells spawned colonies of descendants. Colonies (defined as groups of >50 cells) were visualized by staining for 4 hours with 1% methylene blue (in methanol), and then were counted.

Lipophilicity = type: physicochemical; details: data not shown; in words
[4] = test system: USC-04 glioma cancer stem cells; assay: cells; details: read-out: cytotoxicity with 1050
Procedure: MTT cytotoxicity assays were carried out after cells were treated with the TMZ alone, POH alone, or the TMZ-POH conjugate. The MTT cytotoxicity assays were carried out as described in Chen T C, et al. Green tea epigallocatechin gallate enhances therapeutic efficacy of temozolomide in orthotopic mouse glioblastoma models. Cancer Lett. 2011 Mar. 28; 302(2):100-8.

CHOP = assay: Western blot of ER stress in TMZ sensitive and resistant U251 glioma cells; type: cell-based, human
Procedure: Western blots were performed after TMZ sensitive and resistant glioma cells were treated with the TMZ-POH conjugate for 18 hr.

[5] = test system: tumor brain endothelial cells (TuBEC); assay: MTT cytotoxicity assay, tumor brain endothelial cells; type: cell-based; details: in words
From the text: (§2) Cancer Lett. 2011 Mar. 28; 302(2):100-8.

[6] = test system: TMZ resistant cells (U251TR); assay: MTT cytotoxicity assay, U251TR cells; type: cell-based, human; details: in words
From the text: as §2

normal astrocytes = assay: MTT cytotoxicity assay, normal astrocytes; type: cell-based; details: in words
From the text: as §2

[7] = test system: brain endothelial cells (BEC; confluent and subconfluent); assay: MTT cytotoxicity assay, brain endothelial cells; type: cell-based; details: in words
From the text: as §2

MGMT-negative cell lines = assay: Colony formation assay, MGMT-negative breast cancer cell lines (summary); type: cell-based, human
Procedure: as §1

γ-H2AX = assay: Western blot of DNA damage marker in MCF7 cells; type: cell-based, human; details: MCF-7, 50 μM, 48 hours, in words
Procedure: Actin was used as a loading control.
Total cell lysates were analyzed by Western blot analysis as described in P. Pyrko et al. Downregulation of survivin expression and concomitant induction of apoptosis by celecoxib and its non-cyclooxygenase-2-inhibitory analog, dimethyl-celecoxib (DMC), in tumor cells in vitro and in vivo. Mol Cancer 5 (2006) 19. The primary antibodies were purchased from Cell Signaling Technology (Beverly, Mass.) or Santa Cruz Biotechnology, Inc. (Santa Cruz, Calif.) and used according to the manufacturers' recommendations. All immunoblots were repeated at least once to confirm the results.

| SMILES | drug levels in the cerebrospinal fluid (CSF) lower than in plasma [1] [%] | half-life [2] [h] | IC50 [3] [µM] | lipophilicity (Lipophilicity) | IC50 [4] [µM] | concentration at which activation of the proapoptic protein CHOP was shown (as low as) (CHOP; 18 hr treatment) [µM] | ER stress (ERS) (CHOP; TMZ sensitive and resistant U251, 18 hr, in words) | cytotoxicity (MTT assay) [5] | cytotoxicity (MTT assay) [6] | cytotoxicity (MTT assay) (normal astrocytes) | cytotoxicity (MTT assay) ([7]; confluent BEC) | cytotoxicity (MTT assay) ([7]; subconfluent BEC, high concentrations) | IC50 (MGMT-negative cell lines; Homo sapiens, range over MGMT-negative cell lines) [µM] | active in the range of (MGMT-negative cell lines; MGMT-negative cells) [µM] | phosphorylation of H2AX (γ-H2AX; without O6-BG) | levels of γ-H2AX (γ-H2AX; pre-treated with O6-BG (30 μM)) |
| --- | --- | --- | --- | --- | --- | --- | --- | --- | --- | --- | --- | --- | --- | --- | --- | --- |
| Cn1nnc2c(C(N)=O)ncn2c1=O [TMZ, temozolomide, reference compound] | 80 | 1 to 2 |  |  |  |  |  |  |  |  |  |  |  |  |  |  |
| C=C(C)[C@@H]1CC=C(COC(=O)NC(=O)c2ncn3c(=O)n(C)nnc23)CC1 [TMZ-POH] |  |  | 31 to 33 | increased over TMZ | 150 | 60 | induces ER stress | did not induce significant cytotoxicity | demonstrated cytotoxicity | not towards normal astrocytes; also recorded: did not induce significant cytotoxicity | did not induce significant cytotoxicity | Mild to moderate cytotoxicity | 1.2 to 4.6 | 1 to 5 | no increased phosphorylation of H2AX | increased levels of γ-H2AX became readily apparent |
